# Experimental data reported in ChEMBL document CHEMBL1141988, “Bis(aminopyrrolidine)-derived ureas (APUs) as potent MCH1 receptor antagonists” (Bioorg Med Chem Lett, 2005).
# Target: Melanin-concentrating hormone receptor 1 (Homo sapiens, UniProt Q99705)
# Assay: Displacement of [125I]MCH from human Melanin-concentrating hormone 1 (MCH1) receptor modified for optimal expression in HEK293 cells
# Assay type: cell-based
# Chain of Melanin-concentrating hormone receptor 1 (Q99705 whole entry): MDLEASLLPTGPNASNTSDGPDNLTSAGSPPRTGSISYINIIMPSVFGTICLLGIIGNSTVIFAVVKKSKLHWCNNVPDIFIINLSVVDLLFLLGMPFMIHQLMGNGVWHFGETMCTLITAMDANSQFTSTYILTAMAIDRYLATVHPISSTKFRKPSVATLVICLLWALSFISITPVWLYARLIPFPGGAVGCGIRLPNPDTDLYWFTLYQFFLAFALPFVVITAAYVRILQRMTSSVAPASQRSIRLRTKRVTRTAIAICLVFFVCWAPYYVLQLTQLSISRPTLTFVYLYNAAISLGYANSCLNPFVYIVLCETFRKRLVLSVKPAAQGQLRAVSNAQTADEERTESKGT
row,Structure (SMILES),Ki [nM]
1,CN(C)CC1CCc2cc(NC(=O)c3ccc(-c4ccc(F)cc4)cc3)ccc2C1 (centres undefined),5.5
2,CN1CCC(N(C)C(=O)CCCN(C)C(=O)c2ccc(-c3ccccc3)cc2)C1 (centres undefined),142
3,CN(C(=O)CCCC(=O)c1ccc(Cl)cc1)C1CCN(C(=O)N(C)C2CCN(CCCc3ccccc3)C2)C1 (centres undefined),48
4,CN(C(=O)c1ccc(-c2ccc(C(F)(F)F)cc2)cc1)C1CCN(C(=O)N(C)C2CCN(CCS(=O)(=O)N3CCCC3)C2)C1 (centres undefined),82
5,CN(C(=O)c1ccc(Oc2ccc(F)cc2)cc1)C1CCN(C(=O)N(C)C2CCN(CCCc3ccc(Cl)cc3)C2)C1 (centres undefined),5.3

# Further lines, results first:
row,Ki [nM],Structure (SMILES)
1,18,CN(C(=O)c1ccc(-c2ccc(C(F)(F)F)cc2)cc1)C1CCN(C(=O)N(C)C2CCN(CCOc3ccc(Cl)cc3)C2)C1 (centres undefined)
2,7.3,CN(C(=O)c1ccc(-c2ccc(C(F)(F)F)cc2)cc1)C1CCN(C(=O)N(C)C2CCN(CCCc3ccc(Cl)cc3)C2)C1 (centres undefined)
3,14,CN(C(=O)c1ccc(-c2ccc(C(F)(F)F)cc2)cc1)C1CCN(C(=O)N(C)C2CCN(CCS(=O)(=O)c3ccc(Cl)cc3)C2)C1 (centres undefined)
4,96,CN(C(=O)c1ccc(-c2ccc(C(F)(F)F)cc2)cc1)C1CCN(C(=O)N(C)C2CCN(CCO)C2)C1 (centres undefined)
